Reference: patent US8404660B2, “Method of obtaining of 4-N-furfurylcytosine and/or its derivatives, an anti-aging composition and use of 4-N-furfurylcytosine and/or its derivatives in the manufacture of anti-aging composition” (Instytut Chemii Bioorganicznej Pan, priority 2007, dated 2013)
Entries after “also recorded” stand apart in the source; their conditions may differ.

Assays:
[1] = system: fibroblast cells; assay: cytotoxic effect of FC on fibroblast cell viability, long-term culture; format: cell-based; conditions: 100 μM FC, vs untreated control
Experimental: It was observed much less living cells and after 5 weeks they are clearly death (FIG. 2A).
(§1) HeLa and fibroblast cells are routinely maintained in this laboratory. Fibroblast cells were grown in Optimem medium supplemented with 10% fetal calf serum and antibiotics, HeLa cells were grown in RPMI 1640 supplemented with 10% fetal calf serum and antibiotics (penicillin 100 U/ml and streptomycin 100 ug/ml). All cell lines were incubated in a humidified atmosphere with 5% CO2 in air at 37° C.
There 1×10^6 cells on 6-well plates were used to study the cytotoxicity area of FC on cell growth in the presence or absence of FC.

[2] = system: GAPDH; assay: RT/PCR analysis of GAPDH gene expression in fibroblast cells; format: cell-based; conditions: fibroblast cells cultured 5 weeks with 100 μM FC; phosphoimager analysis
Experimental: To confirm this observation total RNA was isolated and RT/PCR was perform to analyzed total GAPDH gene expression as a result of condition of cells survival (FIG. 2B) The phosphoimager analysis was performed to determined differences in GAPDH expression in fibroblast cells. We observed that it is 72% lower in FC treated cells in comparison to the control (FIG. 2C).
(§2) Total RNA from cells was isolated using TRIZOL reagent (Invitrogen). Samples for analyses of gene expression were prepared from cultured Hela and fibroblast cells Aliquots (1×10^6 cells) were removed and homogenized in TRIZOL reagent (Invitrogen). Total RNA was then chloroform extracted and precipitated using iso-propanol and ethanol. Reverse transcription was carried out using: 2 μg RNA, random primer and RevertAid™ H Minus M-MuLV reverse transcriptase (Fermentas) according to the manufactures instructions. The resultant cDNA was amplified with primers complementary to the glyceraldehyde-3-phosphate dehydrogenase, GAPDH (G1: GGGTGGAGCCAAACGGGTC, G2: […]) PCR reaction was initiated with denaturation at 94° C. for 2 min, annealing at 55° C. for 1 min, extension at 72° C. for 30 sec, followed by 30 cycles. Equal volumes of amplified products were electrophoresed on 1 agarose gel and stained with ethidium bromide.
Differences in expression level were determined using Phosphoimager and ImageQant program.

[3] = system: GAPDH; assay: RT-PCR analysis of GAPDH gene expression in HeLa cells (internal control); format: cell-based; conditions: 100 μM FC, 24 hours, vs untreated control
Experimental: In other test, we have analyzed influence of FC on the specific gene expression. In this case it was DNMT-1. Effect of FC on DNMT-1 expression was check in HeLa cells after 24 hours (FIG. 3A).
as §1
as §2, with “Equal volumes of amplified products were electrophoresed on 1 agarose gel and stained with ethidium bromide.” left out

[4] = solubility observed during purification; format: physicochemical
Experimental: The second step was the reaction of furfurylamine (FIG. 1 V) with 4-N-p-toluenesulfonyl-2′-deoxycytidine (FIG. 1 I). The third step was depended on creating of 4-N-furfurylcytosine (FIG. 1 III), by cleavage of N-glycosyl bond by solution of inorganic acid in water (pH of this solution was about 3).
In this reason, purify on the column was performed in warm water (40-45° C.). The column was referred by aluminium foil, because the decrease temperature of water was carried out to precipitate of the product on the gel. The purification of the product was performed two times, because acid degradation of ribose gave a lot of byproducts, obstructed purification. The main product was eluted in 0.1% warm water solution of methanol. When the temperature of solvent was higher than 45° C., the product could elute earlier. The 4-N-furfurylcytosine was crystallized in water, gave colorless crystals, which form thin needles.

## O=c1nc(NCc2ccco2)cc[nH]1 [FC, 4-N-furfurylcytosine]
[1]; after 3 weeks of culture
  fibroblast cell viability: decreases in cell viability
[1]; after 5 weeks of culture
  fibroblast cell viability / cytotoxic effect: clearly death; also recorded: cytotoxic effect
[2]
  GAPDH expression lower in FC treated cells in comparison to the control: 72%
[3]
  GAPDH expression level: stable and similar
[4]; all solvents
  solubility in solvents: low solubility
[4]; water, increases with temperature
  solubility in water: best solubility
